Test results taken from the supplement of paper PMC10307832.

Experiments:
[1] = compound: CC(C)(C)c1cc(NC(=O)Nc2ccc(-c3cn4c(n3)sc3cc(OCCN5CCOCC5)ccc34)cc2)no1 [Quizartinib]; experiment: relative viability (nuclei count vs DMSO), 5 days (fraction); higher = more cells survive
How it was run: (§1)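 Viability was defined as treated-well nuclei divided by vehicle-well nuclei, with the median taken over replicate plates. Cells from lung cancer lines sat overnight at 37 °C in 1536-well plates, received five √10-spaced library-drug doses by pinning on vehicle-anchored plates, and grew 5 days without medium change before one-step fixation, permeabilisation and Hoechst staining, 4× imaging and MetaXpress nuclear counts. Only plates with control CV under 25% and at least one doubling were kept.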

[2] = compound: COCC[n+]1c2c(n(Cc3cnccn3)c1C)C(=O)c1ccccc1C2=O [YM155]; experiment: as above
How it was run: as §1

NCI-H1648
relative viability ([1]; 0.003162 µM): 0.756 | relative viability ([1]; 0.01 µM): 0.81 | relative viability ([1]; 0.03162 µM): 0.886 | relative viability ([1]; 0.1 µM): 1.29 | relative viability ([2]; 0.002 µM): 0.748 | relative viability ([2]; 0.006325 µM): 1.11 | relative viability ([2]; 0.02 µM): 0.829 | relative viability ([2]; 0.06325 µM): 0.995
